Experimental data as given in US20250361209A1, “CRYSTAL FORMS OF N-(3-FLUOROPHENYL)-6-(6,7-DIMETHOXYQUINOLIN-4-OXY)-3,4-DIHYDROQUINOLINE-1(2H)-CARBOXAMIDE METHANESULFONATE AND PREPARATION METHOD THEREOF” (Shanghai Yi Feng Biotechnology Co., Ltd., priority 2023, published 2025).
Entries after “also recorded” stand apart in the source; their conditions may differ. Like-named read-outs stand apart in the source and are kept apart here. Each block holds one molecule with its values, some of them ahead of it.

Assays:
[1] = Comparison of oral absorption of K-13 (free base) and its methanesulfonate, plasma concentration-time and PK; type: in vivo, BALB/c mice; details: 10 mg · kg^−1 PO; for concentration at 8 h / concentration at 24 h: 10 mg · kg^−1, BALB/c mice
Description: Comparison of oral absorption of K-13 (free base) and its methanesulfonate (N-(3-fluorophenyl)-6-(6. 7-dimethoxyquinolin-4-oxy)-3.4-dihydroquinoline-1(2H)-carboxamide methanesulfonate)

Hygroscopicity, DVS test = type: physicochemical
Experimental: The hygroscopicity of the anhydrate crystalline form C of methanesulfonate was evaluated by a DVS test at 0% RH-95% RH at 25° C.

[2] = Solid state stability of the crystalline form C of methanesulfonate (HPLC purity, XRPD); type: physicochemical; details: for change in HPLC purity: closed condition 60° C. 24 hours, open condition 25° C./60% RH 1 week or 4 weeks, methanesulfonate
Experimental: The purity decreased from 99.22 area % to 98.80 area % after the crystalline form C was placed under an open condition in an environment of 40° C./75% RH for 4 weeks, with a 0.38% increase in the impurity at RRT of 0.81.

[3] = Test of influencing factors of crystalline forms A, B and C (total impurity); type: physicochemical
Description: Example 3 Test of Influencing Factors of Crystalline Forms A, B and C

[4] = 60° C./closed condition/24 hours
[5] = Start* (RH tests; stored at −20° C.)
[6] = open condition 40° C./75% RH, 4 weeks

plasma Concentration of K-13-1, PO-1 ([1]; BALB/c mice, 0.083 h, animal PO-1): 0.0296 µg/mL
plasma Concentration of K-13-1, PO-2 ([1]; BALB/c mice, 0.083 h, animal PO-2): 0.0466 µg/mL
plasma Concentration of K-13-1, Mean ([1]; BALB/c mice, 0.083 h, mean): 0.0381 µg/mL
plasma Concentration of K-13-1, PO-1 ([1]; BALB/c mice, 0.25 h, animal PO-1): 0.186 µg/mL
plasma Concentration of K-13-1, PO-2 ([1]; BALB/c mice, 0.25 h, animal PO-2): 0.215 µg/mL
plasma Concentration of K-13-1, Mean ([1]; BALB/c mice, 0.25 h, mean): 0.201 µg/mL
plasma Concentration of K-13-1, PO-1 ([1]; BALB/c mice, 0.5 h, animal PO-1): 0.48 µg/mL
plasma Concentration of K-13-1, PO-2 ([1]; BALB/c mice, 0.5 h, animal PO-2): 0.865 µg/mL
plasma Concentration of K-13-1, Mean ([1]; BALB/c mice, 0.5 h, mean): 0.673 µg/mL
plasma Concentration of K-13-1, PO-1 ([1]; BALB/c mice, 1 h, animal PO-1): 0.551 µg/mL
plasma Concentration of K-13-1, PO-2 ([1]; BALB/c mice, 1 h, animal PO-2): 0.42 µg/mL
plasma Concentration of K-13-1, Mean ([1]; BALB/c mice, 1 h, mean): 0.485 µg/mL
plasma Concentration of K-13-1, PO-1 ([1]; BALB/c mice, 2 h, animal PO-1): 0.136 µg/mL
plasma Concentration of K-13-1, PO-2 ([1]; BALB/c mice, 2 h, animal PO-2): 0.485 µg/mL
plasma Concentration of K-13-1, Mean ([1]; BALB/c mice, 2 h, mean): 0.311 µg/mL
plasma Concentration of K-13-1, PO-1 ([1]; BALB/c mice, 4 h, animal PO-1): 0.22 µg/mL
plasma Concentration of K-13-1, PO-2 ([1]; BALB/c mice, 4 h, animal PO-2): 0.395 µg/mL
plasma Concentration of K-13-1, Mean ([1]; BALB/c mice, 4 h, mean): 0.308 µg/mL
plasma Concentration of K-13-1, PO-1 ([1]; BALB/c mice, 24 h, animal PO-1): BLOQ
AUC0-inf ([1]; BALB/c mice, analyte K-13-1): 2.894 µg·h/mL
AUC0-t ([1]; BALB/c mice, analyte K-13-1): 2.87 µg·h/mL
Cmax ([1]; BALB/c mice, analyte K-13-1): 0.673 µg/mL
Kel ([1]; BALB/c mice, analyte K-13-1): 0.200 h⁻¹
F (oral bioavailability) ([1]; BALB/c mice, analyte K-13-1, listed as free base): 20%
concentration at 8 h ([1]; BALB/c, mouse, plasma, po, animal PO-1, read-out: plasma Concentration of K-13-1, PO-1): 0.0972 µg/mL
concentration at 8 h ([1]; BALB/c, mouse, plasma, po, animal PO-2, read-out: plasma Concentration of K-13-1, PO-2): 0.0588 µg/mL
concentration at 8 h ([1]; BALB/c, mouse, plasma, po, mean, read-out: plasma Concentration of K-13-1, Mean): 0.078 µg/mL
concentration at 24 h ([1]; BALB/c, mouse, plasma, po, 24 h, animal PO-2, read-out: plasma Concentration of K-13-1, PO-2): 0.00465 µg/mL
concentration at 24 h ([1]; BALB/c, mouse, plasma, po, 24 h, mean, read-out: plasma Concentration of K-13-1, Mean): 0.00465 µg/mL
half-life ([1]; BALB/c, mouse, plasma, po, 10 mg/kg, BALB/c mice, analyte K-13-1): 3.5 h
Tmax ([1]; BALB/c, mouse, plasma, po, 10 mg/kg, BALB/c mice, analyte K-13-1, read-out: Tmax): 0.5 h
SMILES: COc1cc2nccc(Oc3ccc4c(c3)CCCN4C(=O)Nc3cccc(F)c3)c2cc1OC [K-13-1, N-(3-fluorophenyl)-6-(6,7-dimethoxyquinolin-4-oxy)-3,4-dihydroquinoline-1(2H)-carboxamide]

hygroscopicity classification (Hygroscopicity, DVS test; DVS 0% RH-95% RH at 25° C., classification per Chinese Pharmacopoeia 2015): slight hygroscopicity
hygroscopic weight gain (Hygroscopicity, DVS test; DVS, 25° C./80% RH): about 0.46%
Purity, area %, peak 1 RRT 0.42 ([2]; 25° C./60% RH open, 1 week*): 0.02 area %
Purity, area %, peak 2 RRT 0.60-0.61 ([2]; 25° C./60% RH open, 1 week*): 0.04 area %
Purity, area %, peak 3 RRT 0.81 ([2]; 25° C./60% RH open, 1 week*): 0.55 area %
Purity, area %, peak 4 RRT 0.93 ([2]; 25° C./60% RH open, 1 week*): 0.05 area %
Purity, area %, peak 5 RRT 1.00 (main peak) ([2]; 25° C./60% RH open, 1 week*): 99.15 area %
Purity, area %, peak 6 RRT 1.10 ([2]; 25° C./60% RH open, 1 week*): 0.14 area %
Purity, area %, peak 7 RRT 1.27 ([2]; 25° C./60% RH open, 1 week*): 0.06 area %
Purity, area %, peak 1 RRT 0.42 ([2]; 25° C./60% RH open, 4 weeks): 0.02 area %
Purity, area %, peak 2 RRT 0.60-0.61 ([2]; 25° C./60% RH open, 4 weeks): 0.05 area %
Purity, area %, peak 3 RRT 0.81 ([2]; 25° C./60% RH open, 4 weeks): 0.54 area %
Purity, area %, peak 4 RRT 0.93 ([2]; 25° C./60% RH open, 4 weeks): 0.05 area %
Purity, area %, peak 5 RRT 1.00 (main peak) ([2]; 25° C./60% RH open, 4 weeks): 99.14 area %
Purity, area %, peak 6 RRT 1.10 ([2]; 25° C./60% RH open, 4 weeks): 0.14 area %
Purity, area %, peak 7 RRT 1.27 ([2]; 25° C./60% RH open, 4 weeks): 0.06 area %
Purity, area %, peak 1 RRT 0.42 ([2]; 40° C./75% RH open, 1 week*): 0.03 area %
Purity, area %, peak 2 RRT 0.60-0.61 ([2]; 40° C./75% RH open, 1 week*): 0.04 area %
Purity, area %, peak 3 RRT 0.81 ([2]; 40° C./75% RH open, 1 week*): 0.69 area %
Purity, area %, peak 4 RRT 0.93 ([2]; 40° C./75% RH open, 1 week*): 0.04 area %
Purity, area %, peak 5 RRT 1.00 (main peak) ([2]; 40° C./75% RH open, 1 week*): 99.02 area %
Purity, area %, peak 6 RRT 1.10 ([2]; 40° C./75% RH open, 1 week*): 0.13 area %
Purity, area %, peak 7 RRT 1.27 ([2]; 40° C./75% RH open, 1 week*): 0.06 area %
Purity, area %, peak 1 RRT 0.42 ([2]; 40° C./75% RH open, 4 weeks): 0.03 area %
Purity, area %, peak 2 RRT 0.60-0.61 ([2]; 40° C./75% RH open, 4 weeks): 0.08 area %
Purity, area %, peak 3 RRT 0.81 ([2]; 40° C./75% RH open, 4 weeks): 0.86 area %
Purity, area %, peak 4 RRT 0.93 ([2]; 40° C./75% RH open, 4 weeks): 0.05 area %
Purity, area %, peak 5 RRT 1.00 (main peak) ([2]; 40° C./75% RH open, 4 weeks): 98.80 area %
Purity, area %, peak 6 RRT 1.10 ([2]; 40° C./75% RH open, 4 weeks): 0.13 area %
Purity, area %, peak 7 RRT 1.27 ([2]; 40° C./75% RH open, 4 weeks): 0.05 area %
Purity, area %, peak 1 RRT 0.42 [2, 4]: 0.03 area %
Purity, area %, peak 2 RRT 0.60-0.61 [2, 4]: 0.05 area %
Purity, area %, peak 3 RRT 0.81 [2, 4]: 0.55 area %
Purity, area %, peak 4 RRT 0.93 [2, 4]: 0.05 area %
Purity, area %, peak 5 RRT 1.00 (main peak) [2, 4]: 99.12 area %
Purity, area %, peak 6 RRT 1.10 [2, 4]: 0.15 area %
Purity, area %, peak 7 RRT 1.27 [2, 4]: 0.05 area %
Purity, area %, peak 1 RRT 0.42 ([2]; Start (60° C. closed test)): 0.03 area %
Purity, area %, peak 2 RRT 0.60-0.61 ([2]; Start (60° C. closed test)): 0.05 area %
Purity, area %, peak 3 RRT 0.81 ([2]; Start (60° C. closed test)): 0.54 area %
Purity, area %, peak 4 RRT 0.93 ([2]; Start (60° C. closed test)): 0.05 area %
Purity, area %, peak 5 RRT 1.00 (main peak) ([2]; Start (60° C. closed test)): 99.13 area %
Purity, area %, peak 6 RRT 1.10 ([2]; Start (60° C. closed test)): 0.15 area %
Purity, area %, peak 7 RRT 1.27 ([2]; Start (60° C. closed test)): 0.06 area %
Purity, area %, peak 1 RRT 0.42 [2, 5]: 0.02 area %
Purity, area %, peak 2 RRT 0.60-0.61 [2, 5]: 0.03 area %
Purity, area %, peak 3 RRT 0.81 [2, 5]: 0.48 area %
Purity, area %, peak 4 RRT 0.93 [2, 5]: 0.05 area %
Purity, area %, peak 5 RRT 1.00 (main peak) [2, 5]: 99.22 area %
Purity, area %, peak 6 RRT 1.10 [2, 5]: 0.14 area %
Purity, area %, peak 7 RRT 1.27 [2, 5]: 0.06 area %
crystalline form after the stability test (XRPD) ([2]; after stability test): no change in crystalline form
change in HPLC purity ([2]; listed as crystalline form C of methanesulfonate): no significant decrease
change in HPLC purity [2]: No significant change
decrease in purity [2, 6]: 0.42 area %
increase in the impurity at RRT of 0.81 [2, 6]: 0.38%
Total impurity % ([3]; High humidity (RH92.5%), 0 day): 0.66%
Total impurity % ([3]; High humidity (RH92.5%), 10 days): 0.75%
Total impurity % ([3]; High humidity (RH92.5%), 30 days): 0.73%
Total impurity % ([3]; High temperature (60° C.), 0 day, methanesulfonate): 0.66%
Total impurity % ([3]; High temperature (60° C.), 10 days, methanesulfonate): 0.81%
Total impurity % ([3]; High temperature (60° C.), 30 days): 0.85%
Total impurity % ([3]; Illumination (5000 + 500 lux), 0 day, methanesulfonate): 0.66%
Total impurity % ([3]; Illumination (5000 + 500 lux), 10 days, methanesulfonate): 0.83%
Total impurity % ([3]; Illumination (5000 + 500 lux), 30 days, methanesulfonate): 0.89%
SMILES: COc1cc2nccc(Oc3ccc4c(c3)CCCN4C(=O)Nc3cccc(F)c3)c2cc1OC [Crystalline form C, N-(3-fluorophenyl)-6-(6,7-dimethoxyquinolin-4-oxy)-3,4-dihydroquinoline-1(2H)-carboxamide methanesulfonate]
hygroscopicity compared with other crystalline forms (Hygroscopicity, DVS test): better than that of the crystalline form A and the crystalline form B
crystalline form after the DVS test (XRPD) (Hygroscopicity, DVS test; after DVS test, listed as crystalline form C of methanesulfonate, methanesulfonate): no change in crystalline form; also recorded: remained unchanged
solid state stability compared with other crystalline forms [2]: better than that of the crystalline form A and the crystalline form B
